Results taken from publication PMC8791529, “Schistosoma mansoni α-N-acetylgalactosaminidase (SmNAGAL) regulates coordinated parasite movement and egg production” (PLoS Pathogens, 2022).

Target: T1, SmNAGAL (Smp_089290) (Schistosoma mansoni, UniProt A0A8F5XXF6)
T1 construct: gene NAGAL; native enzyme in soluble worm antigen preparation (SWAP) of adult worms, not purified; assigned by siRNA knockdown
Experiment: colorimetric hydrolysis at […] nm in worm extract, with siRNA knockdown
Format: biochemical
Conditions: 0.15 M McIlvaine buffer pH 4.6, 37 °C, 60 min; SWAP of siLuc and siSmp_089290 worms

Structure (SMILES): CC(=O)N[C@H]1[C@@H](Oc2ccc([N+](=O)[O-])cc2)O[C@H](CO)[C@H](O)[C@@H]1O [4-Nitrophenyl N-acetyl-α-D-galactosaminide]
- colorimetric hydrolysis at 410 nm in worm extract, with siRNA knockdown: smnagal depletion in siRNA-treated worms significantly reduced α-NAGAL activity in SWAP
